# Where two headings read alike, the source gives them in different places.
# Tests used:
# [1] = Equilibrium solubility of peramivir in saline solutions of different pH; format: physicochemical; parameters: unit not given here; conditions: 25° C.
# Procedure: An excess amount of bulk peramivir was drawn and placed into a 25 ml volumetric flask, and 0.7% salt solution was applied to bring the volume to scale; the diluted solution was placed on a shaker and shaken for 24 h (25° C., 75 rpm), and then dilute hydrochloric acid (5%, V/V) was applied to regulate the pH to 4, 4.5, 5.0, and 5.5, respectively; the pH-regulated solutions were placed for another 48 h, and then filtered with a 0.45 μm filter membrane; the filtrates were diluted 250-fold with deionized water; the peramivir contents in the samples were determined by the HPLC method in peramivir standard.
# [2] = at respective timing
# Procedure: Experiment Method: 15 SD male rats were drawn to be randomly assigned into 3 groups, 5 rats in each group, and peramivir sodium chloride injection (Lot No.: 3139262, Guangzhou Nanxin Pharmaceutical Co., Ltd.) was administered via intravenous injection at a dose of 10 mg/kg. 0.20 ml blood was collected from orbital venous plexus at 5 min, 1 h, and 3 h after dosing to the rats, respectively; and then the rats were lethally anesthetized to harvest the lung tissues (including trachea). After being anticoagulated by heparin sodium, the whole blood was centrifuged (1000 rpm, 5 min) to harvest the plasma; the lung tissues were rinsed and weighed; the plasma and lung tissues were placed under −20° C. until used for testing.
# The rats were lethally anesthetized at 5 min, 1 h, and 3 h after administration, respectively, with their weights weighed and recorded; then, they were exercised to remove lung tissues (including trachea); the lung tissues were rinsed with saline solution; the residual liquid was sucked dry with filter paper; the lung tissues with the residual liquid were placed in an EP tube, weighed with deduction of the weight of the EP tube the weighed weight was recorded; finally, the lung tissues were placed in a −20° C. refrigerator for storage. […]
# Peramivir standard solutions with concentrations of 0.5, 1, 5, 10, 50, 100, 200 μg/mL, respectively, were formulated using 1 mg/mL mother solution according to the gradient dilution method. […] The intra-day lung tissue drug concentrations were calculated according to standard protocol. […]
# [3] = cited from earlier work
smiles,measurement,setting,value
"CCC(CC)[C@H](NC(C)=O)[C@@H]1[C@H](O)[C@@H](C(=O)O)C[C@H]1NC(=N)N [Peramivir, (−)-(1S, 2S, 3R, 4R)-2-hydroxy-3-[(1S)-1-acetamido-2-ethyl]butyl-4-guanidinocyclopenta-1-carbo xylic acid]",Equilibrium Solubility of Peramivir in Saline Solutions,"[1]; pH = 4.0, 0.7% salt solution",33.93 ± 0.51
same,Equilibrium Solubility of Peramivir in Saline Solutions,"[1]; pH = 4.5, 0.7% salt solution",26.53 ± 0.14
same,Equilibrium Solubility of Peramivir in Saline Solutions,"[1]; pH = 5.0, 0.7% salt solution",22.84 ± 0.39
same,Equilibrium Solubility of Peramivir in Saline Solutions,"[1]; pH = 5.5, 0.7% salt solution",22.04 ± 0.21
same,Equilibrium Solubility of Peramivir in Saline Solutions,[1]; pH was not regulated with 0.7% salt solution (pH = 6.86),21.48 ± 0.31
same,"lung tissue concentration, aerosol inhalation relative to intravenous administration",[2]; aerosol 10 mg/kg vs intravenous 10 mg/kg,2.02˜41.58 times
same,"lung tissue concentration, aerosol inhalation relative to intravenous administration",[2]; aerosol low dose 2.5 mg/kg vs intravenous 10 mg/kg,1.07˜4.58 times
same,"lung tissue concentration, aerosol inhalation relative to intravenous administration",[2]; aerosol medium dose 5 mg/kg vs intravenous 10 mg/kg,1.58˜5.31 times
same,stability of peramivir APIs,[3]; 48 h at 100° C.,stable
same,stability of peramivir APIs,[3]; acidic conditions,unstable
same,stability of peramivir APIs,[3]; alkaline and neutral environments,good stability
same,stability of peramivir APIs,[3]; light irradiation for 10 days,good stability

# Source: patent US12226384B2, “Peramivir solution type inhalant and preparation method therefor” (priority 2019, dated 2025)
